Laboratory results: patent publication US20150105252A1, “SUBSTITUTED PYRAZOLES AS HERBICIDES” (E I DU PONT DE NEMOURS AND COMPANY, priority 2013, published 2015)

Key:
barnyardgrass [1] = test: Test A preemergence; assay type: in vivo, Echinochloa crus-galli; conditions: preemergence
In short: (§1)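 Both timings tested concurrently in loam/sand soil: preemergence by directed soil spray, postemergence on plants of 2–10 cm at the one- to two-leaf stage. Greenhouse holding period was approximately 10 days before visual injury assessment (0–100, 0 = no effect).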

crabgrass, large [2] = test: Test A preemergence; assay type: in vivo, Digitaria sanguinalis; conditions: preemergence; for Crabgrass, Large plant response rating (0 to 100 scale): 125 g ai/ha, visual injury approx. 10 days after treatment; for Crabgrass, Large plant response rating: 500 g ai/ha, visual injury after approx. 10 days, 0 to 100 scale (0 no effect, 100 complete control)
In short: as §1

foxtail, giant [3] = test: Test A preemergence; assay type: in vivo, Setaria faberii; conditions: preemergence; for Foxtail, Giant plant response rating (0 to 100 scale): 125 g ai/ha, visual injury approx. 10 days after treatment; for Foxtail, Giant plant response rating: 500 g ai/ha, visual injury after approx. 10 days, 0 to 100 scale (0 no effect, 100 complete control)
In short: as §1

morningglory [4] = test: Test A preemergence; assay type: in vivo, Ipomoea spp.; conditions: preemergence; for Morningglory plant response rating (0 to 100 scale): 125 g ai/ha, visual injury approx. 10 days after treatment; for Morningglory plant response rating: 500 g ai/ha, visual injury after approx. 10 days, 0 to 100 scale (0 no effect, 100 complete control)
In short: as §1

pigweed [5] = test: Test A preemergence; assay type: in vivo, Amaranthus retroflexus; conditions: preemergence; for Pigweed plant response rating (0 to 100 scale): 125 g ai/ha, visual injury approx. 10 days after treatment; for Pigweed plant response rating: 500 g ai/ha, visual injury after approx. 10 days, 0 to 100 scale (0 no effect, 100 complete control)
In short: as §1

velvetleaf [6] = test: Test A preemergence; assay type: in vivo, Abutilon theophrasti; conditions: preemergence; for Velvetleaf plant response rating (0 to 100 scale): 125 g ai/ha, visual injury approx. 10 days after treatment; for Velvetleaf plant response rating: 500 g ai/ha, visual injury after approx. 10 days, 0 to 100 scale (0 no effect, 100 complete control)
In short: as §1

wheat [7] = test: Test A preemergence; assay type: in vivo, Triticum aestivum; conditions: preemergence; for Wheat plant response rating (0 to 100 scale): 125 g ai/ha, visual injury approx. 10 days after treatment; for Wheat plant response rating: 500 g ai/ha, visual injury after approx. 10 days, 0 to 100 scale (0 no effect, 100 complete control)
In short: as §1

corn [8] = test: Test A preemergence; assay type: in vivo, Zea mays; conditions: preemergence; for Corn plant response rating (0 to 100 scale): 125 g ai/ha, visual injury approx. 10 days after treatment; for Corn plant response rating: 500 g ai/ha, visual injury after approx. 10 days, 0 to 100 scale (0 no effect, 100 complete control)
In short: as §1

barnyardgrass [9] = test: Test A postemergence; assay type: in vivo, Echinochloa crus-galli
In short: as §1

crabgrass, large [10] = test: Test A postemergence; assay type: in vivo, Digitaria sanguinalis
In short: as §1

foxtail, giant [11] = test: Test A postemergence; assay type: in vivo, Setaria faberii
In short: as §1

morningglory [12] = test: Test A postemergence; assay type: in vivo, Ipomoea spp.
In short: as §1

pigweed [13] = test: Test A postemergence; assay type: in vivo, Amaranthus retroflexus
In short: as §1

velvetleaf [14] = test: Test A postemergence; assay type: in vivo, Abutilon theophrasti
In short: as §1

wheat [15] = test: Test A postemergence; assay type: in vivo, Triticum aestivum
In short: as §1

corn [16] = test: Test A postemergence; assay type: in vivo, Zea mays
In short: as §1

rice = test: Test B flood; assay type: in vivo, Oryza sativa; conditions: 250 g ai/ha, visual rating on 0 to 100 scale (0 no effect, 100 complete control), 13 to 15 days
Procedure: (§2) Seeds selected from rice (Oryza sativa), sedge, umbrella (small-flower umbrella sedge Cyperus difformis), ducksalad (Heteranthera limosa), and barnyardgrass (Echinochloa crus-galli) were grown to the 2-leaf stage for testing. At time of treatment, test pots were flooded to 3 cm above the soil surface, treated by application of test compounds directly to the paddy water, and then maintained at that water depth for the duration of the test.
(§3) Treated plants and controls were maintained in a greenhouse for 13 to 15 days, after which time all species were compared to controls and visually evaluated. Plant response ratings, summarized in Table B, are based on a scale of 0 to 100 where 0 is no effect and 100 is complete control. A dash (-) response means no test result.

sedge, umbrella = test: Test B flood; assay type: in vivo, Cyperus difformis; conditions: 250 g ai/ha, visual rating on 0 to 100 scale (0 no effect, 100 complete control), 13 to 15 days
Procedure: as §2, §3

ducksalad = test: Test B flood; assay type: in vivo, Heteranthera limosa; conditions: 250 g ai/ha, visual rating on 0 to 100 scale (0 no effect, 100 complete control), 13 to 15 days
In short: (§4)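 Flooded-pot test: compound dosed into 3 cm of standing water above soil when plants had two leaves. Visual control ratings (0–100) versus untreated plants after 13–15 d.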

barnyardgrass [17] = test: Test B flood; assay type: in vivo, Echinochloa crus-galli; conditions: 250 g ai/ha, visual rating on 0 to 100 scale (0 no effect, 100 complete control), 13 to 15 days
In short: as §4

[18] = 500 g ai/ha, visual injury after approx. 10 days, 0 to 100 scale (0 no effect, 100 complete control)
[19] = Postemergence, 125 g ai/ha, 0 to 100 scale, 0 no effect, 100 complete control
[20] = Postemergence, 500 g ai/ha, 0 to 100 scale (0 no effect, 100 complete control)
[21] = 125 g ai/ha, visual injury, 0 to 100 scale, approx. 10 days
[22] = postemergence, 125 g ai/ha, about 10 days, visual rating on 0 to 100 scale (0 no effect, 100 complete control)

CCc1cc(C(=O)NCC(F)(F)F)nn1Oc1cccc(C(F)(F)F)c1 [Compound 217]
50: Crabgrass, Large plant response rating (0 to 100 scale) (crabgrass, large [2])
70: Crabgrass, Large plant response rating (crabgrass, large [10]; [20]) | Morningglory plant response rating (morningglory [12]; [20]) | Pigweed plant response rating (pigweed [13]; [20])
30: Foxtail, Giant plant response rating (foxtail, giant [11]; [20]) | Velvetleaf plant response rating (velvetleaf [14]; [20])
90: Crabgrass, Large plant response rating (crabgrass, large [2])
20: Barnyardgrass plant response rating (barnyardgrass [1]; [18]) | Pigweed plant response rating (0 to 100 scale) (pigweed [5]) | Barnyardgrass plant response rating (barnyardgrass [9]; [20]) | Crabgrass, Large plant response rating (crabgrass, large [10]; [19]) | Morningglory plant response rating (morningglory [12]; [19]) | Pigweed plant response rating (pigweed [13]; [19]) | Corn plant response rating (corn [16]; [20])
0: Barnyardgrass plant response rating (0 to 100 scale, 0 is no effect, 100 is complete control) (barnyardgrass [1]; 125 g ai/ha, visual injury approx. 10 days after treatment) | Foxtail, Giant plant response rating (0 to 100 scale) (foxtail, giant [3]) | Morningglory plant response rating (0 to 100 scale) (morningglory [4]) | Velvetleaf plant response rating (0 to 100 scale) (velvetleaf [6]) | Wheat plant response rating (0 to 100 scale) (wheat [7]) | Corn plant response rating (0 to 100 scale) (corn [8]) | Corn plant response rating (corn [8]) | Barnyardgrass plant response rating (barnyardgrass [9]; [19]) | Foxtail, Giant plant response rating (foxtail, giant [11]; [19]) | Velvetleaf plant response rating (velvetleaf [14]; [19]) | Wheat plant response rating (wheat [15]; [19]) | Wheat plant response rating (wheat [15]; [20]) | Corn plant response rating (corn [16]; [19]) | Plant response rating, Rice (rice) | Plant response rating, Sedge, Umbrella (sedge, umbrella) | Plant response rating, Ducksalad (ducksalad) | Plant response rating, Barnyardgrass (barnyardgrass [17])
40: Foxtail, Giant plant response rating (foxtail, giant [3])

O=C(NCC(F)(F)F)c1cc(Cl)n(Cc2cccc(C(F)(F)F)c2)n1 [Compound 170]
0: Barnyardgrass plant response rating (barnyardgrass [1]; [21]) | Barnyardgrass plant response rating (barnyardgrass [1]; [18]) | Foxtail, Giant plant response rating (0 to 100 scale) (foxtail, giant [3]) | Morningglory plant response rating (0 to 100 scale) (morningglory [4]) | Morningglory plant response rating (morningglory [4]) | Pigweed plant response rating (0 to 100 scale) (pigweed [5]) | Velvetleaf plant response rating (0 to 100 scale) (velvetleaf [6]) | Velvetleaf plant response rating (velvetleaf [6]) | Wheat plant response rating (0 to 100 scale) (wheat [7]) | Wheat plant response rating (wheat [7]) | Corn plant response rating (0 to 100 scale) (corn [8]) | Corn plant response rating (corn [8]) | Foxtail, Giant plant response rating (foxtail, giant [11]; [22]) | Velvetleaf plant response rating (velvetleaf [14]; [22]) | Wheat plant response rating (wheat [15]; [20]) | Wheat plant response rating (wheat [15]; [22]) | Corn plant response rating (corn [16]; [22]) | Plant response rating, Rice (rice) | Plant response rating, Sedge, Umbrella (sedge, umbrella) | Plant response rating, Ducksalad (ducksalad) | Plant response rating, Barnyardgrass (barnyardgrass [17])
20: Crabgrass, Large plant response rating (crabgrass, large [10]; [22]) | Morningglory plant response rating (morningglory [12]; [20])
50: Foxtail, Giant plant response rating (foxtail, giant [3])
60: Pigweed plant response rating (pigweed [5]) | Pigweed plant response rating (pigweed [13]; [22])
10: Crabgrass, Large plant response rating (0 to 100 scale) (crabgrass, large [2]) | Barnyardgrass plant response rating (barnyardgrass [9]; [22]) | Foxtail, Giant plant response rating (foxtail, giant [11]; [20]) | Morningglory plant response rating (morningglory [12]; [22]) | Corn plant response rating (corn [16]; [20])
80: Pigweed plant response rating (pigweed [13]; [20])
40: Velvetleaf plant response rating (velvetleaf [14]; [20])
70: Crabgrass, Large plant response rating (crabgrass, large [2])
30: Barnyardgrass plant response rating (barnyardgrass [9]; [20]) | Crabgrass, Large plant response rating (crabgrass, large [10]; [20])

COCc1cc(C(=O)NC(C)C)nn1Cc1ccnc(C(F)(F)F)c1 [Compound 166]
100: Barnyardgrass plant response rating (barnyardgrass [1]; [18]) | Crabgrass, Large plant response rating (0 to 100 scale) (crabgrass, large [2]) | Crabgrass, Large plant response rating (crabgrass, large [2]) | Foxtail, Giant plant response rating (0 to 100 scale) (foxtail, giant [3]) | Foxtail, Giant plant response rating (foxtail, giant [3]) | Morningglory plant response rating (0 to 100 scale) (morningglory [4]) | Morningglory plant response rating (morningglory [4]) | Pigweed plant response rating (0 to 100 scale) (pigweed [5]) | Pigweed plant response rating (pigweed [5]) | Velvetleaf plant response rating (velvetleaf [6]) | Morningglory plant response rating (morningglory [12]; [20]) | Morningglory plant response rating (morningglory [12]; [22]) | Pigweed plant response rating (pigweed [13]; [20])
10: Wheat plant response rating (0 to 100 scale) (wheat [7]) | Corn plant response rating (0 to 100 scale) (corn [8]) | Pigweed plant response rating (pigweed [13]; [22]) | Plant response rating, Rice (rice) | Plant response rating, Barnyardgrass (barnyardgrass [17])
30: Barnyardgrass plant response rating (barnyardgrass [9]; [22]) | Corn plant response rating (corn [16]; [22])
60: Velvetleaf plant response rating (0 to 100 scale) (velvetleaf [6]) | Velvetleaf plant response rating (velvetleaf [14]; [20])
50: Barnyardgrass plant response rating (barnyardgrass [1]; [21]) | Foxtail, Giant plant response rating (foxtail, giant [11]; [22]) | Wheat plant response rating (wheat [15]; [20])
0: Wheat plant response rating (wheat [15]; [22])
40: Crabgrass, Large plant response rating (crabgrass, large [10]; [22]) | Velvetleaf plant response rating (velvetleaf [14]; [22])
70: Foxtail, Giant plant response rating (foxtail, giant [11]; [20])
90: Wheat plant response rating (wheat [7]) | Corn plant response rating (corn [8]) | Barnyardgrass plant response rating (barnyardgrass [9]; [20])
85: Plant response rating, Ducksalad (ducksalad)
80: Crabgrass, Large plant response rating (crabgrass, large [10]; [20]) | Corn plant response rating (corn [16]; [20]) | Plant response rating, Sedge, Umbrella (sedge, umbrella)
